In data set [1] the test system is Rec1_21 (TTCC 165) mRNA. Kind of data set: quantified RT-PCR, Rec1_21. In kind it is in vivo, rabbit. The settings on record: for Relative Abundance Rec1_21, 20 pg F: hypercholesterolemic plus lercanidipine racemate, eight weeks, H2 (normocholesterolemic)=1.0. As to the method: (§1) Nineteen of the isolated DST clones were further validated using RT-PCR analyses; the data are presented in FIGS. 6-24 and in Tables 5-23, below. For each DST examined, the optimal annealing temperature and reagent conditions were determined for the corresponding set of primers (see Table 25) based on results from a preliminary experiment. In eight separate reactions, each set of primers was assayed to find the optimal conditions by adjusting the following four parameters: primer concentration, dNTP concentration, MgCl2 concentration, and number of Taq polymerase units. Once optimal conditions were determined, each DST was run in duplicate multiple simultaneous reactions which usually included at least four dilutions of template (cDNA library), plus control reactions lacking template, and six sequential data points for numbers of cycles.
(§2) Reactions were performed using “Hot Start” PCR with the Clontech TaqStart antibody system (Cat. #5400-1). Each reaction contained 1 ml of the cDNA library dilution as template, determined amounts of AmpliTaq DNA polymerase (cat. #N808-0156), MgCl2, dNTPs (GibcoBRL cat. #10297-018), primer, and Clontech TaqStart Antibody in a 20 ml final reaction volume using 10×Taq buffer II (without MgCl2). Typically, a master mix containing all components except the template was prepared and aliquoted. Various templates were then added to these master mix samples and 20 ml volumes were subsequently dispensed into individual reaction tubes. At various times during the PCR run, tubes were removed sequentially on a predetermined schedule in order to quantitate expression of the target DST over a “window” of cycle times. After amplification, the samples were quantified via fluorimetry.
(§3) PCR was performed at annealing temperatures that were five degrees above the average melting temperature of each primer pair. For primers greater than 10 bases (in a 0.05M salt solution), melting temperature was calculated using the following formula: Tm=59.9+41[% GC]−[675/Primer Length], where %GC is the decimal value. Following determination of the average melting temperature of the primer pair, the annealing temperature was determined by adding five degrees to the average melting temperature. PCR was performed using the following program: 1) 95 degrees Celsius, 3 minutes; 2) 95 degrees Celsius, 30 seconds; 3) TM+5 degrees Celsius, 30 seconds; 4) 72 degrees Celsius, for a time dependent on target length at 16 bp/second; 5) repeat steps 2-4 33 more cycles; 6) 72 degrees Celsius, 3 minutes; 7) 14 degrees Celsius, forever.
(§4) Following temperature cycling, 2 ml of the PCR reaction was added to 140 ml of a 1:280 dilution of PicoGreen (Molecular Probes cat. #P-11495 (10×100 ml)) in TE pH 7.5 in a 96-well Costar UV microtiter plate (Fisher cat. #07-200623). The samples were mixed gently for 1.5 minutes and allowed to equilibrate at room temperature in the dark for 15 minutes. The concentration of the PCR products was quantified by fluorimetry using a PerSeptive Biosystems CytoFluor series 4000 multi-well plate reader.
(§5) Background fluorescence was determined by using duplicate control samples that were cycled with all reaction components except the template. The mean value from these duplicate background control samples was subtracted from the corresponding experimental values prior to analyzing results. The sensitivity of the PicoGreen dsDNA assay is reported to be 250 pg/ml (50 pg dsDNA in a […] assay volume) using a fluorescence microplate reader such as was used in these measurements.
FIG. 20 is a graphical representation of the results of RT-PCR using 20 pg of clone REC1—21 template, in which the amount of PCR product (measured in arbitrary fluorescence units) is plotted against number of cycles, where polyA enriched mRNA was extracted from aortas or rabbits that were normocholesterolemic (filled diamonds, “H2”) and hypercholestrolemic plus lercanidipine racemate, eight weeks (filled squares, “F”).

Data set [2] is described as follows: arterial blood pressure in treated rabbits. In kind it is in vivo. The settings on record: doses utilized (3 mg/kg/week subcutaneously). As to the method: The daily doses of cholesterol (1.6 g) were given in the morning (at 08.00 hours) each mixed in 20 g of food pellets. Normal chow, up to 150 g, was added after all the cholesterol-rich diet was eaten (usually within 30 minutes). The hydrochloride salt of lercanidipine or (R)-lercanidipine (Recordati, Milano, Italy) was administered subcutaneously as a solution in 50% propylene glycol. […] Animals had free access to water and were kept in a 12 hour light-dark cycle. Blood was drawn from the central ear artery at day 29 after treatment, started in order to monitor the lercanidipine plasma level at 24 hour post-dose.

For data set [3], the system named is Rec1_22 (TGGG 164) mRNA. Kind of data set: quantified RT-PCR, Rec1_22. It is filed as in vivo, rabbit. The settings on record: for Relative Abundance Rec1_22, 20 pg D: hypercholesterolemic plus lercanidipine R (−), eight weeks, H2 (normocholesterolemic)=1.0. As to the method:
as §1, §2, §3, §4, §5
FIG. 22 is a graphical representation of the results of RT-PCR using 20 pg of clone REC1—22 template, in which the amount of PCR product (measured in arbitrary fluorescence units) is plotted against number of cycles, where polyA enriched mRNA was extracted from aortas of rabbits that were normocholesterolemic (filled diamonds, “H2”) and hypercholesterolemic plus lercanidipine R (−), eight weeks (filled squares, “D”).

Data set [4] deals with Rec1_24 (CCGG 232) mRNA. Put plainly: quantified RT-PCR, Rec1_24. In kind it is in vivo, rabbit. The settings on record: for Relative Abundance Rec1_24, 100 pg D: hypercholesterolemic plus lercanidipine R (−), eight weeks, H2 (normocholesterolemic)=1.0. The procedure: as §1, §2, §3, §4, §5
FIG. 23 is a graphical representation of the results of RT-PCR using 100 pg of clone REC1—24 template, in which the amount of PCR product (measured in arbitrary fluorescence units) is plotted against number of cycles, where polyA enriched mRNA was extracted from aortas of rabbits that were normocholesterolemic (filled diamonds, “H2”) and hypercholesterolemic plus lercanidipine R (−), eight weeks (filled squares, “D”).

Where [5] appears, read: hypercholesterolemic animals receiving lercanidipine R (−) compared to normocholesterolemic animals.

Counter-ions that a name gives are not always drawn.

Two compounds from patent publication US20030215817A1, “Modulation of gene expression in formation of fatty atherosclerotic lesions” (priority 2003, published 2003) can be followed below.

Take `COC(=O)C1=C(C)NC(C)=C(C(=O)OC(C)(C)CN(C)CCC(c2ccccc2)c2ccccc2)C1c1cccc([N+](=O)[O-])c1` (racemic) [lercanidipine, lercanidipine hydrochloride]: the “Relative Abundance Rec1_21, 20 pg F” value in data set [1] (cycle 24) was 0.0; in data set [1] (cycle 26), 0.0; in data set [1] (cycle 28), 0.0; in data set [1] (cycle 30) it was 0.1; in data set [1] (cycle 32) it was 0.1; in data set [1] (cycle 34), 0.3. Moreover, the “expression of Rec1_21 at 8 weeks (RT-PCR study), in words” value in data set [1] (hypercholesterolemic animals receiving lercanidipine) was “substantially decreased”. In addition, the “effect on arterial blood pressure” value in data set [2] was “did not affect”.
As for `COC(=O)C1=C(C)NC(C)=C(C(=O)OC(C)(C)CN(C)CCC(c2ccccc2)c2ccccc2)[C@@H]1c1cccc([N+](=O)[O-])c1.Cl` (single isomer, unassigned) [(R)-lercanidipine], the “Relative Abundance Rec1_22, 20 pg D” value stood at 0.0 in data set [3] (cycle 26); 0.0 in data set [3] (cycle 28); 0.5 in data set [3] (cycle 30); 0.7 in data set [3] (cycle 32); 0.8 in data set [3] (cycle 34). For the same compound, the “expression of Rec1_22 at 8 weeks (RT-PCR study), in words” value in data set [3] (setting [5]) was “decreased”. Moreover, the “Relative Abundance Rec1_24, 100 pg D” value in data set [4] (cycle 24) is listed as 0.3; in data set [4] (cycle 26), 0.5; in data set [4] (cycle 28), 0.7; in data set [4] (cycle 30), 0.9; in data set [4] (cycle 32), 0.9; in data set [4] (cycle 34) it was 1.1. In data set [4] (setting [5]), the “expression of Rec1_24 at 8 weeks (RT-PCR study), in words” value was “generally somewhat decreased”.
